Results as given in patent US20150164762A1, “USE OF ETHANOLAMINE PHOSPHATE” (priority 2012, published 2015).

Columns and labels:
HBEpC cells = assay: WST-8 proliferation test, primary normal human airway epithelial cells (HBEpC); assay type: cell-based
Procedure: BEGM (Takara Bio, complete medium) was used as the medium. […] Following medium replacement, 10 μl per well of an EP solution of 10 times the set concentration was added, and after 96 hours a proliferation test (WST-8 assay) was performed.

HHDPC cells = assay: WST-8 proliferation test, primary normal human hair dermal papilla cells (HHDPC)
Procedure: HHDPC cells (Cosmo Bio) were seeded to 1×10^4 cells/cm^2 on a 96-well plate. Complete MSCM medium (500, ScienCell) was used as the medium. After 24 hours, the cells were washed gently with 200 μl per well of PBS, the medium was replaced with 90 μl per well of 0% FBS DMEM with 1 vol % of complete MSCM medium added thereto, and the cells were cultured for 24 hours. After culture, 10 μl per well of EP solution was added, and a proliferation test (WST-8 assay) was performed 6 days after EP administration. The WST-8 assay was performed as in Example 1. The same test was performed using minoxidil, which has a clinical hair growth effect.

A549 = assay: WST-8 proliferation test, A549 cancer cells; assay type: cell-based, human; conditions: 0% FBS, 96 hours, even at high concentrations
Procedure: (§1) 0% FBS RPMI-1640 was used as the medium. 24 hours after seeding the cells were washed with 20 μl per well of PBS, and the medium was replaced with 0% FBS RPMI-1640. Following medium replacement, EP solution with 10 times the set concentration was added 10 μl per well, and a proliferation test (WST-8 assay) was performed 96 hours after addition of EP.

HEK 293 = assay: WST-8 proliferation test, HEK 293 immortalized model cells; assay type: cell-based, human; conditions: 0% FBS, 96 hours, even at high concentrations
Procedure: as §1

THP-1 = assay: WST-8 proliferation test, THP-1 floating cells; assay type: cell-based, human; conditions: 0% FBS, 72 hours, high concentrations of 125 μM or more
Procedure: (§2) THP-1 (human acute monocytic leukemia cells) and HL-60 (human myeloid leukemia cells) were logarithmically growth cultured in 10% FBS RPMI-1640 to 2 to 10×10^5 cells/cm^2 to achieve logarithmic growth before EP administration. The cell culture liquid was then centrifuged and precipitated at 1000 rpm, and 90 μl per well was dispensed onto a 96-well plate to 2×10^4 cells/cm^2 in 0% FBS RPMI-1640. […] For the WST-8 assay of the floating cells, 10 μl per well of WST-8 assay reagent was added directly to the cell suspension during culture, and after 1 hour absorbance at 450 nm and 600 nm was measured with a plate reader and the data were analyzed as in the examples above.

HL-60 = assay: WST-8 proliferation test, HL-60 floating cells; assay type: cell-based, human; conditions: 0% FBS, 72 hours, even at high concentrations
Procedure: as §2

BEAS-2B [1] = assay: Suppression of the proliferative effect of EP by a MEK 1/2 inhibitor (WST-8); assay type: cell-based, human; conditions: 250 μM EP, no MEK 1/2 inhibitor, 0.1% FBS, 72 hours
BEAS-2B [2] = assay: Proliferative effects of EP and its metabolic derivatives (WST-8); assay type: cell-based, human; conditions: 0.1% FBS, 72 hours
caspase 3/7 = assay: Serum-free stress-induced caspase 3/7 activity (Caspase-Glo3/7 assay) per cell; assay type: cell-based, human; conditions: 0% FBS, 24 hours
Procedure: After medium replacement, 10 μl per well of EP or FBS solution was added. After 24 hours, a proliferation test (WST-8 assay) and caspase 3/7 assay (Caspase-Glo3/7 assay, Promega) were performed. […] Caspase 3/7 activity was measured by a luminescence test, the blank average was subtracted, and this was divided by the corrected absorbance (corresponding to relative cell number) from the WST-8 assay to calculate the caspase 3/7 activity per cell.

BEAS-2B [3] = assay: Transepithelial electrical resistance (TER), BEAS-2B; assay type: cell-based, human; conditions: EP 1 mM, 1% FBS
Procedure: (§3) Cells of the established normal human airway epithelial cell line BEAS-2B were seeded to 1×10^5 cells/cm^2 on a cell culture insert (353104, BD Falcon) (FIG. 14). 10% FBS RPMI-1640 was used as the medium. The amount of medium was 200 μl on the insert side and 750 μl on the well side. Beginning the next day, substitution/medium replacement was performed once a day with 1% FBS RPMI-1640 prepared with the following 4 reagent conditions, and transepithelial electrical resistance (TER) was measured with MilliCell (Millipore). • Condition 1: Control • Condition 2: EP 1 mM • Condition 3: Dexamethasone 1 μM (dexamethasone (Dex): positive control substance known to enhance barrier function) • Condition 4: EP 1 mM and Dex 1 μM

BEAS-2B [4] = assay: Permeability test, 4-kilodalton fluorescent dextran through BEAS-2B cell sheet (Papp); assay type: cell-based, human; conditions: EP 1 mM, 7 days after seeding
Procedure: as §3
7 days after cell seeding a permeability test was performed as follows.
A 4-kilodalton fluorescent dextran molecule (Sigma) was added to the cell culture insert to a concentration of 0.1 mg/ml, 20 μl of the medium on the well side was removed after 1 hour, and the amount of permeating fluorescent dextran was estimated from the fluorescent strength at each concentration. The permeation rate Papp of a substance from the insert side to the well side is normally determined by the following formula.
Papp=(volume of medium on well side/insert area×initial insert concentration)×(altered concentration on well side/elapsed time)

Calu-3 cells = assay: Transepithelial electrical resistance (TER), Calu-3; assay type: cell-based, human; conditions: 1 mM EP, 0.1% FBS
Procedure: Calu-3 cells were seeded to 3×10^5 cells/cm^2 on a cell culture insert (353104, BD Falcon). They were cultured until confluent in 10% FBS RPMI-1640, and once confluence was reached, 0.1% FBS RPMI-1640 containing the following was substituted, and the medium was replaced every day. TER was measured as in Example 11. The results are shown in FIG. 15. • Condition 1: Control • Condition 2: 1 μM dexamethasone • Condition 3: 1 mM EP

TNF-α = assay: ELISA of TNF-α secreted from THP-1 cells, with or without LPS; assay type: cell-based, human
Procedure: Human monocytic cultured THP-1 cells were cultured logarithmically as follows in 10% FBS RPMI-1640 growth culture. Cells were seeded to 4×10^5/ml on a 24-well plate (500 μl/well), additional growth culture containing EP was added, and finally the EP concentration was adjusted to the target concentration (0.1 mM, 1 mM). 2 hours after EP administration, further growth medium containing lipopolysaccharides (LPS) was added, and adjusted to concentrations of 0.1 μg/ml and 1 μg/ml.
4 hours and 24 hours after lipopolysaccharide administration, the medium was collected, the cells were precipitated by centrifugation, and the supernatant was used as an ELISA sample. As in the Singh et al. report, the inflammatory cytokine TNF-α and the chemokine IL-8, which attracts inflammatory cells, were used as ELISA measurement indicators.

## NCCOP(=O)(O)O [EP, Ethanolamine phosphate]
HBEpC cells; 7 μM, BEBM basal medium, 96 hours
  growth-stimulating effect: roughly two-fold
HBEpC cells; mM level
  toxicity: no toxicity
HHDPC cells; 6 days
  effective concentration range for proliferative effect: very broad concentration range
  proliferative effect: equal to or greater than that of minoxidil
HHDPC cells; high concentrations
  cell toxicity: non-toxic
A549
  cell proliferation ability: absolutely no cell proliferation ability
HEK 293
  cell proliferation ability: absolutely no cell proliferation ability
THP-1
  cell proliferation effect: small cell proliferation effect
HL-60
  cell proliferation ability: absolutely no cell proliferation ability
BEAS-2B [1]
  cell proliferation: roughly 3 fold
BEAS-2B [2]
  proliferative action: dose-dependent proliferative action
Caspase 3/7
  FBS concentration whose effect EP 1000 μM corresponds to (regression curve): 2.2%
Caspase 3/7; 1000 μM
  caspase 3/7 activity per cell: about 0.72 fold
BEAS-2B [3]
  increase in TER: 49%
BEAS-2B [4]
  permeation rate Papp of fluorescent dextran, lower than control: 25%
Calu-3 cells
  rise in TER value relative to the control: 2.0 fold
TNF-α; 4 hours and 24 hours of stimulus, EP 0.1 mM, 1 mM
  secretion of LPS-induced TNF-α: dose-dependently suppressed
TNF-α; LPS 1 μg/ml, 24 hours of stimulus, EP 1 mM
  amount of TNF-α induced by LPS stimulus: about 70 pg/ml
TNF-α; cells not treated with LPS, 26 hours, 1 mM EP
  TNF-α secretion, reduced to % of untreated: about 78%
